Data: publication PMC6070671, “Enhancement of Tumor Cell Death by Combining gef Gene Mediated Therapy and New 1,4-Benzoxazepin-2,6-Dichloropurine Derivatives in Breast Cancer Cells” (Frontiers in Pharmacology, 2018)
“And” between values parts separate entries of the source, which are not always exact repeats. Equal entries are not always repeated.

Columns and labels:
MCF-7TG cancer cell line = assay: Sulforhodamine-B cytotoxicity assay, MCF-7TG (gef-expressing); assay type: cell-based; details: Homo sapiens, 144 h; 6 days of treatment, gef gene induced with 1 μM Dex
Excerpt: (§1) The breast cancer cell line MCF-7 was kindly provided by Dr. N. Olea of the Sánchez Mora Tumoural Biology Institute (University Hospital of Granada). The MCF-7TG cell line, a gef-expressing breast cancer cell line controlled by a mouse mammary tumor virus promoter and inducible by dexamethasone (Dex) was derivates from MCF-7 cells following methodology previously described by us ([Boulaiz et al., 2003b]). A selected MCF-7pMAMneo empty vector positive clone was also used. Non-tumoral breast cell line MCF-10A (ATCC: CRL-10317) was provided by the Cell Bank of the University of Granada (Granada, Spain). MCF-7 cells were cultured in a humidified atmosphere at 37°C with 5% CO2 and Dulbecco’s modified Eagle Medium (DMEM) (Gibco, Grand Island, NY, United States) with 10% heat-inactivated fetal bovine serum (FBS) (Gibco), 2.7% sodium bicarbonate, 2% L-glutamine, 1% Hepes buffer, 500 mg/L ampicillin and 40 mg/L gentamicin. MCF-7TG cells were grown in the same medium described above supplemented by 200 μg/ml geneticin G418 and 1μM Dex to induce gef gene expression. MCF-10A grown in DMEM/F12 medium with 5% horse serum (HS), 0.02 μg/ml epithelial growth factor (EGF), 0.5 μg/ml hydrocortisone, 100 ng/ml cholera toxin and 0.01 μg/ml insulin.
(§2) To assess the effect of the different drugs on cell viability we used the sulforhodamine-B colorimetric assay. Cells were resuspended and seeded at a density of 5 × 10^3 cells/well onto 12-well plates kept growing for 24 h. After that, the compounds were added at different concentrations to the cells (0.5, 0.7, 1, 2, 5, and 10 μM) (Figure 1). After 72 h treatment, the medium was discarded and fresh medium and treatment was added. Cells were maintained for 3 days more with the treatment. Finally, they were processed as previously described ([Boulaiz et al., 2003b]) using a Titertek Multiscan apparatus (Flow Laboratories, Irvine, United Kingdom) at 492 nm. We used the cell number for each cell stock before each cell growth experiment to set the linearity of the sulforhodamine-B assay. To calculate the IC50 values we used semilogarithmic dose–response curves to make a linear interpolation. All of the experiments were performed in triplicate wells for each treatment and were repeated at least twice.

MCF-7TG cell line [1] = assay: Annexin V-FITC/PI apoptosis flow cytometry, MCF-7TG; assay type: cell-based, human; details: 72 h, IC50 of compound, control 0.74 ± 0.05%
Excerpt: (§3) Apoptosis was detected using the apoptosis detection kit for annexin V-FITC (Pharmingen, San Diego, CA, United States) by flow cytometry according to [Boulaiz et al. (2003a)]. […] The results were representative of three independent experiments.

MCF-7 cell line [2] = assay: Annexin V-FITC/PI apoptosis flow cytometry, MCF-7; assay type: cell-based, human; details: MCF-7, 72 h, IC50 of compound; control 8.15 ± 0.40%
Excerpt: as §3

MCF-7TG cell line [3] = assay: Flow cytometric analysis of the cell cycle, MCF-7TG; assay type: cell-based, human; details: 72 h, IC50 of compound
Protocol: (§4) Cells were grown at 70% confluence and treated with either DMSO alone or with different concentrations of the compounds corresponding to their IC50 values. Flow cytometry analysis was carried out after 72 h of treatment as described ([Marchal et al., 2004]). The results were representative of three independent experiments.

MCF-7 cells = assay: In vitro cell proliferation assay over 15 days, MCF-7; assay type: cell-based, human; details: MCF-7, 15 days of treatment
Protocol: (§5) MCF-7, MCF-7TG, and MCF-7pMAMneo cells were seeded at a density of 25 × 10^3/well into six-well plates using the culture conditions above mentioned. After 24 h, fresh medium was added to the cells and treated with IC50 and 2^∗IC50 of drugs cited in Table 1. No treatment was added to the control groups. To ensure the expression of the gef gene, MCF-7TG cells medium was always treated with 1 μM Dex. Cells in culture were always treated with or without drugs every 3 days when medium was changed up to the end of the assay. Four plates were used to run each treatment and time point (0, 3, 6, 9, 12, and 15 days of treatment). After the end of the treatment, we used sulforhodamine-B to stain the cells as previously described.

MCF-7TG cells = assay: In vitro cell proliferation assay over 15 days, MCF-7TG; assay type: cell-based, human; details: for growth inhibition: MCF-7TG (gef expressed), 15 days of treatment; for type of synergistic effect with the gef gene: combined with gef gene, proliferation over 15 days
Protocol: as §5

MCF-7 cell line [4] = assay: Flow cytometric analysis of the cell cycle, MCF-7; assay type: cell-based, human; details: MCF-7, 72 h, IC50 of compound; for S phase cells: control 17.41 ± 0.81%; for G2/M phase cells: control 17.56 ± 0.87%
Protocol: as §4

MCF-7 cancer cell line = assay: Sulforhodamine-B cytotoxicity assay, MCF-7; assay type: cell-based; details: Homo sapiens, MCF7, 144 h, 6 days of treatment
Protocol: as §2

[5] = system: epithelial MCF-10A cell line; assay: Sulforhodamine-B cytotoxicity assay, MCF-10A; assay type: cell-based; details: Homo sapiens, non-tumoral breast cell line
Excerpt: as §1, §2

| SMILES | IC50 (MCF-7TG cancer cell line) [µM] | necrotic cells (MCF-7TG cell line [1]) [%] | cells in early apoptosis (MCF-7 cell line [2]) [%] | G0/G1 phase cells (MCF-7TG cell line [3]) [%] | growth inhibition (MCF-7 cells; 2*IC50 of compound) | growth inhibition (MCF-7 cells; IC50 of compound) [%] | growth inhibition (MCF-7TG cells; IC50 of compound) [%] | type of synergistic effect with the gef gene (MCF-7TG cells) | S phase cells (MCF-7 cell line [4]) [%] | G2/M phase cells (MCF-7 cell line [4]) [%] | IC50 (MCF-7 cancer cell line) [µM] | IC50 [5] [µM] | growth inhibition (MCF-7TG cells; 2*IC50 of compound) |
| --- | --- | --- | --- | --- | --- | --- | --- | --- | --- | --- | --- | --- | --- |
| O=[N+]([O-])c1ccc(S(=O)(=O)N2CC(n3cnc4c(Cl)nc(Cl)nc43)OCc3ccccc32)cc1 (racemic) [Bozepinib, (R,S)-2,6-dichloro-9-[1-(p-nitrobenzenesulfonyl)-1,2,3,5-tetrahydro-4,1-benzoxazepine-3-yl]-9H-purine] | 0.56 ± 0.01 | 47.03 ± 1.07 | 40.41 ± 2.02 | 85.98 ± 4.29 | 89.42% | 76 | 81.42 | enhanced synergetic effect | 12.29 ± 0.90 | 22.98 ± 1.14 | 1.23 ± 0.05 | 6.33 ± 0.03 |  |
| COC(CN(c1ccccc1CO)S(=O)(=O)c1ccc([N+](=O)[O-])cc1)n1cnc2c(Cl)nc(Cl)nc21 (stereo not drawn) [ACG-812c-F1] | 8.75 ± 0.18 |  |  |  |  |  |  |  |  |  | 9.43 ± 0.07 | 17.48 ± 0.12 |  |
| O=[N+]([O-])c1ccccc1S(=O)(=O)N1CC(n2cnc3c(Cl)nc(Cl)nc32)OCc2ccccc21 (stereo not drawn) [FC-26c] | 0.65 ± 0.03 | 54.38 ± 2.3 | 37.63 ± 1.88 | 81.25 ± 4.05 |  | 61.6 |  | enhanced synergetic effect |  |  | 2.6 ± 0.1 | 9.187 ± 0.08 |  |
| Nc1ccccc1S(=O)(=O)N1CC(n2cnc3c(Cl)nc(Cl)nc32)OCc2ccccc21 (stereo not drawn) [FC-29b] | 1.9 ± 0.02 | 51.92 ± 2.09 | 57.62 ± 2.88 | 80.07 ± 4.01 | 70.48% and 70% | 61.91 | 60 | additive synergetic effect | 9.47 ± 0.30 | 26.12 ± 1.20 | 5.02 ± 0.12 | 4.04 ± 0.09 | 70.48% and 70% |
| O=S(=O)(c1ccccc1NO)N1CC(n2cnc3c(Cl)nc(Cl)nc32)OCc2ccccc21 (stereo not drawn) [FC-29d] | 6.7 ± 0.01 |  |  |  |  |  |  |  |  |  | 8.98 ± 0.3 | 47.12 ± 0.05 |  |
| O=[N+]([O-])c1ccccc1S(=O)(=O)N1CC(n2cnc3nc(Cl)nc(Cl)c32)OCc2ccccc21 (stereo not drawn) [FC-30b2] | 1.8 ± 0.08 | 65.09 ± 2.47 | 73.27 ± 3.66 | 72.96 ± 3.50 | 96% | 82 | 81.14 | enhanced synergetic effect | 0.63 ± 0.01 | 33.22 ± 1.66 | 7.75 ± 0.06 | 9.9 ± 0.08 |  |
